Experimental data reported in PMC10175918 (Communications Biology, 2023).
Read-outs that look alike come from different tables or passages of the source.

What was measured:
Assay in all cases: TGFα-shedding assay-based GPCR screening with chimeric Gα subunit proteins
Assay type in all cases: cell-based
348 GPCRs [1] = molecular target: T1, 348 GPCRs (Homo sapiens, UniProt P32249); conditions: EBI2 (G protein-coupled receptor 183 (Epstein-Barr Virus Induced Gene 2)); 10µM, Favipiravir 100μM
T1 construct: expressed in transfected cells; host or cells: HEK293A
T1 sequence (P32249 whole entry): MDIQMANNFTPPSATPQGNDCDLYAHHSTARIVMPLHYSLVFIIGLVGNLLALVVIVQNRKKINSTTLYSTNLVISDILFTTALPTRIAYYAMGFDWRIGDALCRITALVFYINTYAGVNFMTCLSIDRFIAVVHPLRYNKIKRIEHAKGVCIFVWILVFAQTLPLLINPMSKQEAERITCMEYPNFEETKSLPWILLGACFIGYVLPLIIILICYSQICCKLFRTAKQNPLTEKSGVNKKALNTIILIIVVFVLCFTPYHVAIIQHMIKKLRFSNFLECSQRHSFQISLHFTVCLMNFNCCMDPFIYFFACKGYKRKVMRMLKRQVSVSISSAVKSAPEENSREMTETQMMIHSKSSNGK

348 GPCRs [2] = molecular target: T2, 348 GPCRs (Homo sapiens, UniProt Q8TDU9); conditions: RXFP4 (relaxin/insulin-like family peptide receptor 4); 10µM, Favipiravir 100μM
T2 construct: expressed in transfected cells; host or cells: HEK293A
T2 sequence (Q8TDU9 whole entry): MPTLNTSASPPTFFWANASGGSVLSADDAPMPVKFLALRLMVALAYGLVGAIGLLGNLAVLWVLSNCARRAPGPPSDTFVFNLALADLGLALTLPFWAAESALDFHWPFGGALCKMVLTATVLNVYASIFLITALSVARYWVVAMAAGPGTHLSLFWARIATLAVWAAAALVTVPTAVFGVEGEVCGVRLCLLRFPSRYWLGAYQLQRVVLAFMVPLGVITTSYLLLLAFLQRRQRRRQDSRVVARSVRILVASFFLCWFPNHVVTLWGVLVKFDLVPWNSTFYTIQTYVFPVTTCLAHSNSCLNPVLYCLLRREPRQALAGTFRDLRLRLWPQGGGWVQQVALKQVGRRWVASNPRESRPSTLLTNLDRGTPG

348 GPCRs [3] = molecular target: T3, 348 GPCRs (Homo sapiens, UniProt Q96RJ0); conditions: 10µM, Favipiravir 100μM
T3 construct: expressed in transfected cells; host or cells: HEK293A
T3 sequence (Q96RJ0 1-339): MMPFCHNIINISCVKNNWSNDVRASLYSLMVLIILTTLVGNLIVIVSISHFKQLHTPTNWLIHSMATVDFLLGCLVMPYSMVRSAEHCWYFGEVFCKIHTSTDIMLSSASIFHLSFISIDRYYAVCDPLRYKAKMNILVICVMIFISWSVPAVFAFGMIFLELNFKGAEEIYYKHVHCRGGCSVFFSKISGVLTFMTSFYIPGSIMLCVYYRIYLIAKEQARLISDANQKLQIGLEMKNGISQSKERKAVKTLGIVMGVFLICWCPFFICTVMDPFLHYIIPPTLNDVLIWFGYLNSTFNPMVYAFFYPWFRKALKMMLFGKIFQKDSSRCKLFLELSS

348 GPCRs [4] = molecular target: T4, 348 GPCRs (Homo sapiens, UniProt Q01726)
T4 construct: expressed in transfected cells; host or cells: HEK293A
T4 sequence (Q01726 whole entry): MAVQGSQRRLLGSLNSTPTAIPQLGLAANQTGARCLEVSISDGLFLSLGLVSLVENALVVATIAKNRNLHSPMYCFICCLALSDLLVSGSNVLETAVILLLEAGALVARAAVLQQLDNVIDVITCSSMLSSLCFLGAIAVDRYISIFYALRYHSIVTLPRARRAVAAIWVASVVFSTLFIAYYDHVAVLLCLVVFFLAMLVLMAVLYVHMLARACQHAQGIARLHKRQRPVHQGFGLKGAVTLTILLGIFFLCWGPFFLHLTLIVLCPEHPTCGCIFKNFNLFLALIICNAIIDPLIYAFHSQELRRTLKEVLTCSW

348 GPCRs [5] = molecular target: T5, 348 GPCRs (Homo sapiens, UniProt Q9NYW2); conditions: 10µM, Favipiravir 100μM
T5 construct: expressed in transfected cells; host or cells: HEK293A
T5 sequence (Q9NYW2 1-309): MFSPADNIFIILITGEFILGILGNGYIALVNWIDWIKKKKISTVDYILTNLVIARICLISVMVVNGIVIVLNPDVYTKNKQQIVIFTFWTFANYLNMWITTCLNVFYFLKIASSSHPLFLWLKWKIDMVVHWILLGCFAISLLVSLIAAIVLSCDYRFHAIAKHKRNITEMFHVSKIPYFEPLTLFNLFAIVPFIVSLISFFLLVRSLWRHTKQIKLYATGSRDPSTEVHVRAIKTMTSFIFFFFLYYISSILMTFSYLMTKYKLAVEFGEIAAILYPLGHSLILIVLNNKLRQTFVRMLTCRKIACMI

348 GPCRs [6] = molecular target: T6, 348 GPCRs (Homo sapiens, UniProt P21731); conditions: 10µM, Favipiravir 100μM
T6 construct: expressed in transfected cells; host or cells: HEK293A
T6 sequence (P21731 1-343): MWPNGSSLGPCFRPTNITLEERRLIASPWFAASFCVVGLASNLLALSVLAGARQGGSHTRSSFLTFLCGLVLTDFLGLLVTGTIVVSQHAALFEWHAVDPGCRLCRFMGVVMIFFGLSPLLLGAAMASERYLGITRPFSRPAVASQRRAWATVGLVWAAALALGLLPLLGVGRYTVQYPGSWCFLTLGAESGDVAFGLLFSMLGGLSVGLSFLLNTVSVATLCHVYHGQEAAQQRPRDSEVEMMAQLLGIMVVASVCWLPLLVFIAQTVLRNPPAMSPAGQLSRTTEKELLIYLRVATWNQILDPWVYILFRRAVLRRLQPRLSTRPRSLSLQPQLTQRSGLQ

348 GPCRs [7] = molecular target: T7, 348 GPCRs (Homo sapiens, UniProt P43119); conditions: 10µM, Favipiravir 100μM
T7 construct: expressed in transfected cells; host or cells: HEK293A
T7 sequence (P43119 whole entry): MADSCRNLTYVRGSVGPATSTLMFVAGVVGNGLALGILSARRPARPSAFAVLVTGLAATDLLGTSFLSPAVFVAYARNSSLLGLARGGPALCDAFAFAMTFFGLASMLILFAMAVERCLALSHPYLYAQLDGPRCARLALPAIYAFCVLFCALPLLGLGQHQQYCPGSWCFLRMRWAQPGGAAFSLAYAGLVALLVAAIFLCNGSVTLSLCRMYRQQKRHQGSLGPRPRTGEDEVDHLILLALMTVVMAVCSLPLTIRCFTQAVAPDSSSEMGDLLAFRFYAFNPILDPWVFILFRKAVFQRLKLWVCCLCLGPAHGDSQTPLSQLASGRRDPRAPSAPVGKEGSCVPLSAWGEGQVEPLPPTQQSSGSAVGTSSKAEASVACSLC

348 GPCRs [8] = molecular target: T8, 348 GPCRs (Homo sapiens, UniProt Q9HC97); conditions: 10µM, Favipiravir 100μM
T8 construct: expressed in transfected cells; host or cells: HEK293A
T8 sequence (Q9HC97 whole entry): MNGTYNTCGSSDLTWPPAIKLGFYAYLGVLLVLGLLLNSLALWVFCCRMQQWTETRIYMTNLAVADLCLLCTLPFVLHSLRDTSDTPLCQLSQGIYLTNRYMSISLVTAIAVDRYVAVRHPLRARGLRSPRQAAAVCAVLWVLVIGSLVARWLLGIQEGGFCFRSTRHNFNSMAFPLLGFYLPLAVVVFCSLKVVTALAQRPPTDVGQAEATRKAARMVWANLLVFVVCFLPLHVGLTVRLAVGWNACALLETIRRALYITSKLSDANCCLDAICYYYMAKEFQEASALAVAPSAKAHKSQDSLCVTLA

348 GPCRs [9] = molecular target: T9, 348 GPCRs (Homo sapiens, UniProt P41594); conditions: 10µM, Favipiravir 100μM
T9 construct: expressed in transfected cells; host or cells: HEK293A
T9 sequence (P41594 21-1212): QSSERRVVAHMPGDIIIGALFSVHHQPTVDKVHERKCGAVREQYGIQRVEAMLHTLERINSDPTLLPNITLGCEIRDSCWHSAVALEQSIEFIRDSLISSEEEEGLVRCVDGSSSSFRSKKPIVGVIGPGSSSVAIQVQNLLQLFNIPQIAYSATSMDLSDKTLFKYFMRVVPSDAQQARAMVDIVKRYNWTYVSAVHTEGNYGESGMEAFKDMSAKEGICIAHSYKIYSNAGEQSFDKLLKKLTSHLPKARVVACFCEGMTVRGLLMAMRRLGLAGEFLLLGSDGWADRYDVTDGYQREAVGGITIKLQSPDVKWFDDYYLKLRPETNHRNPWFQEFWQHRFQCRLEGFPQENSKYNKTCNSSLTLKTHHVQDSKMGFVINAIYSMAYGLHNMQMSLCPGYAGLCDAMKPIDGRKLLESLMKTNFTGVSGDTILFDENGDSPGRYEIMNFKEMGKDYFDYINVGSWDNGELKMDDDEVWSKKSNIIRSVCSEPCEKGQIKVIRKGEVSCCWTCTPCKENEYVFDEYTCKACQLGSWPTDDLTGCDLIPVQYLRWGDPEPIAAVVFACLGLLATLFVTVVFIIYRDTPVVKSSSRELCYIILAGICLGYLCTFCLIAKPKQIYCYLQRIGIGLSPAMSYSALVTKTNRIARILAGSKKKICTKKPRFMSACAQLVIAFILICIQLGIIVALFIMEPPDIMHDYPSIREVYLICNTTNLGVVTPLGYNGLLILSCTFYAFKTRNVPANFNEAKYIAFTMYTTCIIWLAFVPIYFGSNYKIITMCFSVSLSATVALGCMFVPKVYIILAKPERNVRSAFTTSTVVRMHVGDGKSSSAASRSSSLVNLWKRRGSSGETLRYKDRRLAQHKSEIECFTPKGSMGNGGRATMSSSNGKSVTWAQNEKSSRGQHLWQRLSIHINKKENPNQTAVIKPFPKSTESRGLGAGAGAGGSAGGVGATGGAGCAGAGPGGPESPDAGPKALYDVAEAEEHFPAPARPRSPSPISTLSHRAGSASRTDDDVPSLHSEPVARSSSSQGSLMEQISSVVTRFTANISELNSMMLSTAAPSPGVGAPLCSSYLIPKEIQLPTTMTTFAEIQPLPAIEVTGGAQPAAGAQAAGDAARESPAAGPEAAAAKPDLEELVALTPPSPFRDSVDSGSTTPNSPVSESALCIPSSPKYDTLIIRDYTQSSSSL

348 GPCRs [10] = molecular target: T10, 348 GPCRs (Homo sapiens, UniProt P48145); conditions: 10µM, Favipiravir 100μM
T10 construct: expressed in transfected cells; host or cells: HEK293A
T10 sequence (P48145 1-328): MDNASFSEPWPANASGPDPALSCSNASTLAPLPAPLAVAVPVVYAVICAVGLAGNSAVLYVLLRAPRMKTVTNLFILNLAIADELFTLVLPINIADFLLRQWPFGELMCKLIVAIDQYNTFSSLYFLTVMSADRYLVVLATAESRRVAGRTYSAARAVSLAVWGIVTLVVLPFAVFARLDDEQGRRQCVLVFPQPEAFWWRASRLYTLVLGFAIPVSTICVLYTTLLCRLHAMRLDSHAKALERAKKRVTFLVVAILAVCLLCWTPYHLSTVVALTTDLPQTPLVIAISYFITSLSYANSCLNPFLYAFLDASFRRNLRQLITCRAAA

348 GPCRs [11] = molecular target: T11, 348 GPCRs (Homo sapiens, UniProt P35368)
T11 construct: expressed in transfected cells; host or cells: HEK293A
T11 sequence (P35368 1-520): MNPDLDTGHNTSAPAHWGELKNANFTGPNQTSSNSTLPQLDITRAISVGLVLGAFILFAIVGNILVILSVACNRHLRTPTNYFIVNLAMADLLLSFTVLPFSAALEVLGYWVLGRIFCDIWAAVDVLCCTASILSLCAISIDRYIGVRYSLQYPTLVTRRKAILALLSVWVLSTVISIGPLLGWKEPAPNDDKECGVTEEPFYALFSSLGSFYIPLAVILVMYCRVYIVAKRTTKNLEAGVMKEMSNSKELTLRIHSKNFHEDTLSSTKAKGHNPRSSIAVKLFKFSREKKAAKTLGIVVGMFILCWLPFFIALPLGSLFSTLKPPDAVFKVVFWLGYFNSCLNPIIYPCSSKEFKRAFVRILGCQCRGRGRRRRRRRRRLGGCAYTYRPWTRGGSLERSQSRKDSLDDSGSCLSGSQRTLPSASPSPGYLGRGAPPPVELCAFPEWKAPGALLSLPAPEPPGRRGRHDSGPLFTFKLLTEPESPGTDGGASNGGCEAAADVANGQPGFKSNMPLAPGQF

[12] = TA1 (trace amine associated receptor 1), read-out: % GPCR activation compared to TPA
[13] = GPCR MC1R (melanocyte-stimulating hormone receptor), read-out: % GPCR activation compared to TPA
[14] = TAS2R8 (taste receptor, type 2, member 8), read-out: % GPCR activation compared to TPA
[15] = TBXA2R (thromboxane A2 receptor), read-out: % GPCR activation compared to TPA
[16] = IP (prostaglandin I2 (prostacyclin) receptor), read-out: % GPCR activation compared to TPA
[17] = GPR35 (G protein-coupled receptor 35), read-out: % GPCR activation compared to TPA
[18] = GRM5 (glutamate receptor, metabotropic 5), read-out: % GPCR activation compared to TPA
[19] = NPBWR1 (neuropeptides B and W receptor 1), read-out: % GPCR activation compared to TPA
[20] = GPCR α1B (adrenoceptor alpha 1B), read-out: % GPCR activation compared to TPA
[21] = read-out: % GPCR activation compared to TPA, TA1 (trace amine associated receptor 1)
[22] = read-out: % GPCR activation compared to TPA, GPCR MC1R (melanocyte-stimulating hormone receptor)
[23] = read-out: % GPCR activation compared to TPA, TAS2R8 (taste receptor, type 2, member 8)
[24] = read-out: % GPCR activation compared to TPA, TBXA2R (thromboxane A2 receptor)
[25] = read-out: % GPCR activation compared to TPA, IP (prostaglandin I2 (prostacyclin) receptor)
[26] = read-out: % GPCR activation compared to TPA, GPR35 (G protein-coupled receptor 35)
[27] = read-out: % GPCR activation compared to TPA, GRM5 (glutamate receptor, metabotropic 5)
[28] = read-out: % GPCR activation compared to TPA, NPBWR1 (neuropeptides B and W receptor 1)
[29] = read-out: % GPCR activation compared to TPA, GPCR α1B (adrenoceptor alpha 1B)

| Structure (SMILES) | % GPCR activation compared to TPA (348 GPCRs [1]) | % GPCR activation compared to TPA (348 GPCRs [2]) | activation at 100 µM (348 GPCRs [3]; [12]) | activation at 10 µM (348 GPCRs [4]; [13]) | activation at 10 µM (348 GPCRs [5]; [14]) | activation at 10 µM (348 GPCRs [6]; [15]) | activation at 100 µM (348 GPCRs [7]; [16]) | activation at 10 µM (348 GPCRs [8]; [17]) | activation at 10 µM (348 GPCRs [9]; [18]) | activation at 10 µM (348 GPCRs [10]; [19]) | activation at 10 µM (348 GPCRs [11]; [20]) | activation at 100 µM (348 GPCRs [3]; [21]) | activation at 10 µM (348 GPCRs [4]; [22]) | activation at 10 µM (348 GPCRs [5]; [23]) | activation at 10 µM (348 GPCRs [6]; [24]) | activation at 100 µM (348 GPCRs [7]; [25]) | activation at 10 µM (348 GPCRs [8]; [26]) | activation at 10 µM (348 GPCRs [9]; [27]) | activation at 10 µM (348 GPCRs [10]; [28]) | activation at 10 µM (348 GPCRs [11]; [29]) | further results |
| --- | --- | --- | --- | --- | --- | --- | --- | --- | --- | --- | --- | --- | --- | --- | --- | --- | --- | --- | --- | --- | --- |
| N#C[C@@]1(c2ccc3c(N)ncnn23)O[C@H](CO)[C@@H](O)[C@H]1O [GS441524] | -1.471% | -0.3375% | -1.3% | 0.496% | 0.391% | -0.528% | -1.08% | 4.18% | 1.65% | -1.75% | -1.17% | – | – | – | – | – | – | – | – | – | – |
| CCC(CC)COC(=O)[C@H](C)N[P@](=O)(OC[C@H]1O[C@@](C#N)(c2ccc3c(N)ncnn23)[C@H](O)[C@@H]1O)Oc1ccccc1 [remdesivir] | 0.4815% | 0.9967% | – | – | – | – | – | – | – | – | – | -1.76% | -0.549% | 0.189% | -0.881% | -0.107% | 0.537% | 2.34% | -1.26% | -0.0202% | – |
| CC(C)OC(=O)[C@H](C)N[P@](=O)(OC[C@H]1O[C@@H](n2ccc(=O)[nH]c2=O)[C@](C)(F)[C@@H]1O)Oc1ccccc1 [sofosbuvir] | -0.7581% | -1.565% | – | – | – | – | – | – | – | – | – | -1.12% | 0.575% | 0.759% | 0.249% | -1.51% | -7.86% | 3.55% | -6.08% | 0.342% | – |
| NC(=O)c1nc(F)cnc1O [favipiravir, 6-fluoro-3-hydroxy-2-pyrazinecarboxamide] | -1.156% | 1.69% | -2.98% | – | -0.549% | -0.974% | -2.05% | 3% | 0.818% | -3.5% | – | – | – | – | – | – | – | – | – | – | activation at 100 µM (348 GPCRs [4]; GPCR MC1R (melanocyte-stimulating hormone receptor), 100μM, read-out: % GPCR activation compared to TPA): -0.375%; activation at 100 µM (348 GPCRs [11]; GPCR α1B (adrenoceptor alpha 1B), 100μM, read-out: % GPCR activation compared to TPA): -1.61% |
| CC(C)C(=O)OC[C@H]1O[C@@H](n2ccc(NO)nc2=O)[C@H](O)[C@@H]1O [molnupiravir] | -0.8417% | -0.4598% | -2.64% | 0.0444% | -0.417% | -1.16% | -1.76% | -3.01% | 0.891% | -7.02% | 0.493% | – | – | – | – | – | – | – | – | – | – |
